According to US12616649B2, “Composition containing plant extracts” (LG HOUSEHOLD & HEALTH CARE LTD., priority 2020, dated 2026):

Legend:
[1] = test system: B-16 mouse melanoma cells; test: Effect of reducing total amount of melanin (whitening); format: cell-based; settings: control group
Procedure: After a sample was added to the culture medium of B-16 mouse melanoma cells, a whitening effect was confirmed by measuring the total amount of melanin at the cellular level (Lotan R., Lotan D. Cancer Res. 40:3345-3350, 1980). Before the experiment, toxicity evaluation was performed on mouse melanoma cells to select a concentration without toxicity, and then whitening evaluation was performed at the concentration.
As a control, arbutin was added to the culture medium at a concentration of 200 ppm. B-16 melanoma cells treated with the sample or arbutin were cultured for 3 days.
Thereafter, the cells were removed from a culture vessel and centrifuged, 1 ml of sodium hydroxide solution (1N concentration) was added to the centrifuged cell pellet, heating was performed at 80° C. for 10 minutes to dissolve melanin, and using a spectrophotometer, absorbance at 400 nm was measured to measure the amount of melanin produced.
The amount of melanin was determined according to absorbance per unit cell number (1×10^6 cells). In addition, based on a non-addition control group, the relative total amount of melanin in the experimental group treated with each sample was calculated as inhibition rate (%), and the results are summarized in the table below.

[2] = test system: RAW264.7 cells; test: NO generation inhibitory effect (GRIESS method, LPS stimulus); format: cell-based, mouse
Procedure: To check the anti-inflammatory effect and skin trouble alleviation effect of each sample, an experiment was conducted to evaluate inhibition of nitric oxide (NO) formation by the GRIESS method using the RAW264.7 cell line (ATCC number: CRL-2278).
Specifically, RAW264.7 cells, which are macrophages of mice, were subcultured several times, and the cells were seeded at a cell density of 3×10^5 cells per well in a 24-well plate, followed by cell culture for 24 hours. At this time, as a positive control, the cells were treated with L-NG-monomethylarginine (L-NMMA), a NO-production inhibitor, to a final concentration of 5 ppm and cultured for 30 minutes. Then, the cells were treated with lipopolysaccharide (LPS) as a stimulus at a concentration of 1 μg/ml and cultured for 24 hours. 100 μl of the supernatant was transferred to a 96-well plate, 100 μl of a GRIESS solution was added thereto, and then reaction was performed at room temperature for 10 minutes. Then, absorbance at 540 nm was measured, and the NO inhibitory effect of each sample was determined based on the absorbance, and the results are shown in the table below.

[3] = Antioxidant effect, free radical scavenging (DPPH); format: physicochemical; settings: control group
Procedure: To confirm antioxidant activity, free radical scavenging activity was measured using DPPH. DPPH was purchased from Sigma Co., Ltd. (USA). First, a standard DPPH ethanol solution with a concentration of […] (0.06 mg/ml) was prepared. Then, ethanol was added to each extract and ascorbic acid as a reference material, which is known as an antioxidant, to prepare samples at a concentration of 0.1%, and serial dilution was performed. Then, the sample and the standard DPPH solution were added in the same ratio and stirred, followed by reaction at 37° C. for 30 minutes. Then, absorbance was measured at 517 nm. At this time, addition of ethanol instead of the sample was used as a control. Free radical scavenging ability was measured by calculating IC50, which is half maximal inhibitory concentration, and the results are shown in the following table. IC50 is a general method of expressing free radical scavenging ability as the concentration of ascorbic acid and extract required to remove 50% of free radicals of a non-addition control group.

[4] = test system: human dermal fibroblasts; test: Hyaluronic acid synthesis enhancement (Hyaluronan ELISA); format: cell-based; settings: 10 ppb
Procedure: Human-derived fibroblasts (human dermal fibroblasts) cultured in a DMEM culture medium containing 10% fetal bovine serum at a cell density of 1×10^5 cells/mL, and 500 μl of the cell culture medium was added to each well of a 24-well plate. After incubation for 18 hours, the samples were diluted with a DMEM culture medium without fetal bovine serum, and each sample was added at the following concentrations. […] After incubation for 24 hours, the cell culture medium was recovered, and the concentration of hyaluronic acid was measured using a Hyaluronan ELISA kit (R&D Systems).

[5] = test system: P. aeruginosa; test: MIC of the hexanediol control, bacteria as named in the tables; format: cell-based; settings: control group
[6] = test system: Aspergillus niger; test: Antibacterial effect, MIC, fungi (serial dilution); format: cell-based
Procedure: MICs were measured for fermented cultures of Staphylococcus aureus and Aspergillus niger.
The serial dilution method was used for both bacteria, and the MIC of fermentation culture was confirmed by visually comparing the turbidity between wells after the incubation was completed.
The minimum inhibitory concentration of each extract was expressed as % (w/v), and MIC (%) in each table means % (w/v) unless otherwise stated.

[7] = test system: human-derived fibroblasts; test: Promotion of type I collagen synthesis (PICP EIA kit); format: cell-based; settings: 10 ppb
Procedure: Each sample was added to the culture medium of human-derived fibroblasts to confirm the effect of promoting synthesis of type I collagen at the cellular level. Measurement of synthesized collagen was quantified using a Procollagen Type I C-Peptide Enzyme Immuno Assay KIT (PICP ETA kit). To measure the amount of synthesized collagen, each sample was added to a fibroblast culture medium (DMEM culture medium). After cell culture for 48 hours, the culture medium was taken, and the degree of synthesis of type I collagen at each concentration was measured at 450 nm using a spectrophotometer using the PICP ETA kit.
For comparison of the effects, a collagen synthesis level was measured in the same manner for the culture medium of untreated fibroblasts (negative control) and a sample (positive control) to which TGFb was added to a final concentration of 10 ppb. A collagen production increase rate was calculated as the ratio of relative collagen production to the negative control group, and the results are shown in the table below.

**Q.** Which “Whitening Melanin content (%)” value ([1]; Arbutin 200 ppm) does the source give for `OC[C@H]1O[C@@H](Oc2ccc(O)cc2)[C@H](O)[C@@H](O)[C@@H]1O` [Aibutin] here?
**A.** 35%

**Q.** Which “Whitening Melanin content (%)” value ([1]; 200 ppm) does the source give for `OC[C@H]1O[C@@H](Oc2ccc(O)cc2)[C@H](O)[C@@H](O)[C@@H]1O` [Arbutin, arbutin] here?
**A.** 35%

**Q.** Which results are given for `CNC(=N)NCCC[C@H](N)C(=O)O` [L-NMMA, L-NG-monomethylarginine]?
**A.** Anti-inflammation Inhibition of NO production (%) ([2]; control group, 5 ppm): 28%; Anti-inflammation Inhibition of NO production (%) ([2]; control group, L-NMMA 5 ppm): L-NMMA (5 ppm) 28%; Anti-inflammation Inhibition of NO production (%) ([2]; positive control, 5 ppm): 28%

**Q.** With `O=C1O[C@H]([C@@H](O)CO)C(O)=C1O` [Vitamin C, ascorbic acid] as the compound, how does the “Anti-oxidation IC50” value [3] read?
**A.** 7.5 ppm

**Q.** What about the “Anti-oxidation IC50” value ([3]; DPPH) of the same compound?
**A.** 7.5 ppm

**Q.** Which results are given for “EGF: epidermal growth factor, known to promote hyaluronic acid production”?
**A.** Moisturizing HA synthesis (%) ([4]; control group): 320%; Moisturizing HA synthesis (%) ([4]; positive control): 320%

**Q.** What does the source list for Hexanediol?
**A.** Anti-bacteria MIC (%) Bacteria: P. aeruginosa [5]: Bacteria: P. aeruginosa 2%; Anti-bacteria MIC (%) Bacteria: P. aeruginosa ([5]; P. aeruginosa): Bacteria: P. aeruginosa 2%; Anti-bacteria MIC (%) Bacteria: P. aeruginosa ([5]; Bacteria: P. aeruginosa): Bacteria: P. aeruginosa 2%; Anti-bacteria MIC Bacteria: P. aeruginosa ([5]; Bacteria: P. aeruginosa): Bacteria: P. aeruginosa 2%; Anti-bacteria MIC (%) Fungi ([6]; % (w/v), A. niger, 30° C., 48 hours): Fungi: A. niger 1%; Anti-bacteria MIC (%) Fungi ([6]; Fungi): Fungi: A. niger 1%; Anti-bacteria MIC (%) Fungi ([6]; Fungi (A. niger)): Fungi: A. niger 1%; Anti-bacteria MIC (%) Fungi ([6]; Fungi (A.niger)): Fungi: A.niger 1%; Anti-bacteria MIC (%) Fungi ([6]; Fungi (control line: A. niger)): Fungi: A. niger 1%; Anti-bacteria MIC (%) Fungi: A. niger ([6]; control group, A. niger): Fungi: A. niger 1%

**Q.** What does the source list for “TGFb: positive control for collagen synthesis, 10 ppb”?
**A.** Anti-wrinkle Collagen synthesis (% of control) ([7]; control group): 25%; Anti-wrinkle Collagen synthesis (% of control) ([7]; positive control): 25%
